According to US20210353593A1 (Chinook Therapeutics, Inc., priority 2019, published 2021):
Positions of bridges follow the written chain, without caps; N, C: chain ends. No end group written: not given here.

Tested on: IL-6 production in primary human mesangial cells
Assay: ET-1 induced IL-6 production (ELISA) in primary human renal mesangial cells
Type: cell-based

Substance: ET-1: endothelin 1, used to stimulate primary human mesangial cells (CSCSSLMDKECVYFCHLDIIW; disulfide 1-15, 3-11; ends not checked; UniProt P05305 53-73, looked up)
- increase in IL-6 production by primary human mesangial cells (exposed to ET-1 over 48 hours): ~6 fold
- increase in IL-6 production by primary human mesangial cells (exposed to ET-1 over 72 hours): ~2.2 fold
